In ChEMBL document CHEMBL4507291 (2021):

Experiments:
[1] = target: D(2) dopamine receptor (Homo sapiens) (UniProt P14416); details: Compound concentration 10.0 uM
[2] = target: Cyclin-dependent kinase 5/CDK5 activator 1 (Homo sapiens) (UniProt Q00535+Q15078); test: CDK5/p25 Kinase screen; type: protein-complex assay; details: Compound concentration 1.0 uM
[3] = target: Bone morphogenetic protein receptor type-1A (Homo sapiens) (UniProt P36894); test: BMPR1A (ALK3) Kinase screen; details: Compound concentration 1.0 uM
[4] = target: Epidermal growth factor receptor (Homo sapiens) (UniProt P00533); test: EGFR (ErbB1) Kinase screen; details: Compound concentration 1.0 uM
[5] = system: Tyrosine-protein kinase JAK2 (Homo sapiens), O60674 [V617F]; test: JAK2 JH1 JH2 V617F Kinase screen; details: Compound concentration 1.0 uM
Bos taurus = species on record: Bos taurus; test: Protein Serine/Threonine Kinase, PKA, Non-Selective Eurofins-Panlabs enzyme assay; type: protein-complex assay; set-up: substrate with concentration 370 µg/mL Histone Type III-S, incubation time 15 min, incubation temperature 25 °C; details: Compound concentration 10.0 uM
[6] = target: T1, Serine/threonine-protein kinase Sgk1 (Homo sapiens) (UniProt O00141); test: SGK (SGK1) Kinase screen; details: Compound concentration 1.0 uM
T1 sequence (whole entry): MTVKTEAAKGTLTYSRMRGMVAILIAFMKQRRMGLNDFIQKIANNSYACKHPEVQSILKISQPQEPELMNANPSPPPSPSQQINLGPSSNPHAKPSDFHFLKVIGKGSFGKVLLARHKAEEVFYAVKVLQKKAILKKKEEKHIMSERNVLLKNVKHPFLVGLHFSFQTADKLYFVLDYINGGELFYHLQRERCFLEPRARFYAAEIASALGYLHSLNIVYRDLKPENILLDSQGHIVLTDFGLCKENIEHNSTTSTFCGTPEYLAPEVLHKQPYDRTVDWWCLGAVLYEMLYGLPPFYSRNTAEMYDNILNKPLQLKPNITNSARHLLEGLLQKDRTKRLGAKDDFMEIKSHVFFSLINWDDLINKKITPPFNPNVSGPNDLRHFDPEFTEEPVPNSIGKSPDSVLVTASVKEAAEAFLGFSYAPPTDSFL

[7] = target: Mitogen-activated protein kinase kinase kinase 8 (Homo sapiens) (UniProt P41279); test: MAP3K8 (COT) Kinase screen; details: Compound concentration 1.0 uM
[8] = target: Dual specificity protein kinase CLK4 (Homo sapiens) (UniProt Q9HAZ1); test: CLK4 Kinase screen; details: Compound concentration 1.0 uM
[9] = target: Platelet-derived growth factor receptor alpha (Homo sapiens) (UniProt P16234); test: PDGFRA (PDGFR alpha) Kinase screen; details: Compound concentration 1.0 uM
[10] = target: Tyrosine-protein kinase JAK2 (Homo sapiens) (UniProt O60674); test: JAK2 JH1 JH2 Kinase screen; details: Compound concentration 1.0 uM
[11] = target: Insulin receptor-related protein (Homo sapiens) (UniProt P14616); test: INSRR (IRR) Kinase screen; details: Compound concentration 1.0 uM
[12] = target: Glutamate receptor 2 (Homo sapiens) (UniProt P42262); details: Rattus norvegicus; Compound concentration 10.0 uM
[13] = target: T2, Ephrin type-B receptor 2 (Homo sapiens) (UniProt P29323); test: EPHB2 Kinase screen; details: Compound concentration 1.0 uM
T2 sequence (whole entry): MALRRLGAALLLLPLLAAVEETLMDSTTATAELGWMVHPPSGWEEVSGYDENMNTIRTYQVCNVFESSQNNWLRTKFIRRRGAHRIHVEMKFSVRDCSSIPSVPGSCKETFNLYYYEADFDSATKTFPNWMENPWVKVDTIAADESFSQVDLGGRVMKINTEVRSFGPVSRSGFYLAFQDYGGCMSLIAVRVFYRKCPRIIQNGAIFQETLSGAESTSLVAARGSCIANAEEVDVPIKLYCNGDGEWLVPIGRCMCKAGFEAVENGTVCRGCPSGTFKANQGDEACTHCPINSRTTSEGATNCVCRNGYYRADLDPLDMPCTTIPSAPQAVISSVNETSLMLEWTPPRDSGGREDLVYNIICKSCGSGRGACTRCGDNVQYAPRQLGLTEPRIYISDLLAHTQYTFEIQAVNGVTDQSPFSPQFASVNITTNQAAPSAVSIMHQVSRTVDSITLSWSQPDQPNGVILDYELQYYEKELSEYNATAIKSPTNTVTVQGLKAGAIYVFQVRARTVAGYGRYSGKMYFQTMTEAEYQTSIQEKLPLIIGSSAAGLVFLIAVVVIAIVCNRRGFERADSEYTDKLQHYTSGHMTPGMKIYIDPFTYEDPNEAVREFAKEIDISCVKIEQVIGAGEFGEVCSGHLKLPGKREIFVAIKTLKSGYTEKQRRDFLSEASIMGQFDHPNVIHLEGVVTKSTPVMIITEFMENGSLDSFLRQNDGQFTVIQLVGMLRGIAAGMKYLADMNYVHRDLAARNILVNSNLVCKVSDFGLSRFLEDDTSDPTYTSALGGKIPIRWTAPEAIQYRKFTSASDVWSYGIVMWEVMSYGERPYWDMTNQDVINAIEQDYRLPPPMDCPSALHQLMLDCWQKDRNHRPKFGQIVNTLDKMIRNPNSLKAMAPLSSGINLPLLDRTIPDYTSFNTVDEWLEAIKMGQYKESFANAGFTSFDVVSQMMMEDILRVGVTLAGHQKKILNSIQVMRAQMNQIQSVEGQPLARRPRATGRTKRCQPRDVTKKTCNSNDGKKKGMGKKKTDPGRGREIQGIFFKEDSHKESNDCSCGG

Rattus norvegicus = species on record: Rattus norvegicus; details: Compound concentration 10.0 uM
[14] = target: Leukocyte tyrosine kinase receptor (Homo sapiens) (UniProt P29376); test: LTK (TYK1) Kinase screen; details: Compound concentration 1.0 uM
[15] = target: Beta-3 adrenergic receptor (Homo sapiens) (UniProt P13945); details: Compound concentration 10.0 uM
[16] = target: B1 bradykinin receptor (Homo sapiens) (UniProt P46663); test: Inhibition of Bradykinin B1 at 10 µM in the Eurofins-Panlabs radioligand binding assay (Eurofins_assay_212510); details: Compound concentration 10.0 uM
[17] = target: Peroxisome proliferator-activated receptor alpha (Homo sapiens) (UniProt Q07869); test: PPARalpha Eurofins-Panlabs radioligand binding assay; details: Compound concentration 10.0 uM

Measured: inhibition

Sequence of Tyrosine-protein kinase JAK2 (Homo sapiens) (O60674 whole entry): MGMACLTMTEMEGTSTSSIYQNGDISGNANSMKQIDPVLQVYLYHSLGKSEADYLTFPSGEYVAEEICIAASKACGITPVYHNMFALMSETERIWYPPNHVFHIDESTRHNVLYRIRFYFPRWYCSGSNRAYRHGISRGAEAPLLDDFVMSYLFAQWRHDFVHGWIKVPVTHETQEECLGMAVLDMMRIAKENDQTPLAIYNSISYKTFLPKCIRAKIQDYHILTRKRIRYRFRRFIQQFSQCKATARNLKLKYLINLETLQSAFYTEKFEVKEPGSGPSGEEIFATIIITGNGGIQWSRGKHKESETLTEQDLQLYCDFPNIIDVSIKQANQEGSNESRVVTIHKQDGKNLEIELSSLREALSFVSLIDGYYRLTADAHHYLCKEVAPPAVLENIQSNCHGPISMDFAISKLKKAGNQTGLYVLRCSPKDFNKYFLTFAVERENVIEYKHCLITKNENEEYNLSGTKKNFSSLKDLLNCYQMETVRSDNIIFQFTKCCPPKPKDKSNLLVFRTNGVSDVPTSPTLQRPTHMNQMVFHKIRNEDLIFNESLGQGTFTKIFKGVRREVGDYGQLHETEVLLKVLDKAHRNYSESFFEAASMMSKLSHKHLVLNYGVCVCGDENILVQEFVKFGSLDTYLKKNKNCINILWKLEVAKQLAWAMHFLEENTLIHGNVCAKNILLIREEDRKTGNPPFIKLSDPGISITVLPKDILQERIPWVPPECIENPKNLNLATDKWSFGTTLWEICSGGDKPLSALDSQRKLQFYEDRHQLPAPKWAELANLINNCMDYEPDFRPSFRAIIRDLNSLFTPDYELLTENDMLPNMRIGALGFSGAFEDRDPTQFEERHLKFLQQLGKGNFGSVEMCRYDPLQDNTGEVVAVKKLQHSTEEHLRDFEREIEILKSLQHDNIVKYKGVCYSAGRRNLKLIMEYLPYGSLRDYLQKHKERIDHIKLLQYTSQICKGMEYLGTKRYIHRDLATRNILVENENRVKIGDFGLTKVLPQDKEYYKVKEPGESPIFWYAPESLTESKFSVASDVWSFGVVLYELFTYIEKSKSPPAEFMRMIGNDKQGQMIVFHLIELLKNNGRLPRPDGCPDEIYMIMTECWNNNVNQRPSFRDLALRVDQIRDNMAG
Sequence of Leukocyte tyrosine kinase receptor (Homo sapiens) (P29376 whole entry): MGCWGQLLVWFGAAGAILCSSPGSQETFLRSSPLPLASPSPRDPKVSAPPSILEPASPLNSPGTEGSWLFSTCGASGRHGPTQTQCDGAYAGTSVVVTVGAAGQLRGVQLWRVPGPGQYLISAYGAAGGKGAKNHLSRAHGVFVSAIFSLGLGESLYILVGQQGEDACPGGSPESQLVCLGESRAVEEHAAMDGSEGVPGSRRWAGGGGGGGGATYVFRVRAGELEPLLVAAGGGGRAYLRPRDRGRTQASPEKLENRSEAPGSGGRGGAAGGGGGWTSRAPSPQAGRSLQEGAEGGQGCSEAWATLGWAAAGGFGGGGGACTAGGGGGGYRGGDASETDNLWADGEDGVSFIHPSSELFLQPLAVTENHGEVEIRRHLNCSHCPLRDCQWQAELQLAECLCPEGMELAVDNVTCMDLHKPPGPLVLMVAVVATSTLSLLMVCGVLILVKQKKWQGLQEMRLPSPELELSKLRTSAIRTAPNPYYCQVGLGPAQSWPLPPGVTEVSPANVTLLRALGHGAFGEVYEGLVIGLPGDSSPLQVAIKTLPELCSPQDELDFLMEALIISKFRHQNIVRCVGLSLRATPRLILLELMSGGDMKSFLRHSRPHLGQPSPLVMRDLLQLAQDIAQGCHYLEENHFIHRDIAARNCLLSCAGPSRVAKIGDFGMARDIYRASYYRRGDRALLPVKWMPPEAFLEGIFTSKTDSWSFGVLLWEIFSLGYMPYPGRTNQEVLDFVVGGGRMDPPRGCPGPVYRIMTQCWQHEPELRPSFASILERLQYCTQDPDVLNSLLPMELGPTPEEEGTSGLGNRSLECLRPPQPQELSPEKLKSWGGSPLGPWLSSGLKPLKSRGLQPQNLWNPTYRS
Sequence of Cyclin-dependent kinase 5/CDK5 activator 1 (Homo sapiens) (Q00535 whole entry): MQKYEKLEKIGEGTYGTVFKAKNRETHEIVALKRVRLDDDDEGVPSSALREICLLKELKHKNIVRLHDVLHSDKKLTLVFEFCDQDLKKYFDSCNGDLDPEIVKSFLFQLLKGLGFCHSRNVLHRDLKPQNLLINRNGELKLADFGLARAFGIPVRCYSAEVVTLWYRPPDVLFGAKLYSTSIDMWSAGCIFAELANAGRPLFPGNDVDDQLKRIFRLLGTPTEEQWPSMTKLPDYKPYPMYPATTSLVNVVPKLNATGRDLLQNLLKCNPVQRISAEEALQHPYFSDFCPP
Sequence of Cyclin-dependent kinase 5/CDK5 activator 1 (Homo sapiens) (Q15078 99-307 partner limits assumed): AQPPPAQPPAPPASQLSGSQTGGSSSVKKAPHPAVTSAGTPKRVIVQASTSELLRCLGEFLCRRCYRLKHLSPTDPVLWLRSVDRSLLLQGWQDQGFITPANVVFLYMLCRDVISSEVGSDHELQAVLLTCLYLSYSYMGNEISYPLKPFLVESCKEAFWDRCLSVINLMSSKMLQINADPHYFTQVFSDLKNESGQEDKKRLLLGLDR
Sequence of Dual specificity protein kinase CLK4 (Homo sapiens) (Q9HAZ1 whole entry, looked up): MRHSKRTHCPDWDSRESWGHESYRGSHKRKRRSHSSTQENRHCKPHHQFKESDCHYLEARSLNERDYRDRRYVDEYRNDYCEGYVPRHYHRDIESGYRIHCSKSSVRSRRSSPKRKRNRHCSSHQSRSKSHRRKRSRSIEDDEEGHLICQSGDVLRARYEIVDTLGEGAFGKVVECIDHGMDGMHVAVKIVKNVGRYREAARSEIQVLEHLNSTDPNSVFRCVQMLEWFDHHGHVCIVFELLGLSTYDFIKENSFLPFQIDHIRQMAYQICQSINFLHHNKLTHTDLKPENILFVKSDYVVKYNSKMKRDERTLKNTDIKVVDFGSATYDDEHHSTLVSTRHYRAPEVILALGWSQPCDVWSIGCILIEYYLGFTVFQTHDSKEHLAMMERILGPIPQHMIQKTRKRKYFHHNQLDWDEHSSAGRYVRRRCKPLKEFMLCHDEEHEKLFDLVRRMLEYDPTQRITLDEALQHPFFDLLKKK
Sequence of Tyrosine-protein kinase JAK2 (Homo sapiens), O60674 [V617F] (O60674 whole entry V617F): as the sequence (O60674 whole entry) above, with V617F counted along it
Sequence of Epidermal growth factor receptor (Homo sapiens) (P00533 whole entry): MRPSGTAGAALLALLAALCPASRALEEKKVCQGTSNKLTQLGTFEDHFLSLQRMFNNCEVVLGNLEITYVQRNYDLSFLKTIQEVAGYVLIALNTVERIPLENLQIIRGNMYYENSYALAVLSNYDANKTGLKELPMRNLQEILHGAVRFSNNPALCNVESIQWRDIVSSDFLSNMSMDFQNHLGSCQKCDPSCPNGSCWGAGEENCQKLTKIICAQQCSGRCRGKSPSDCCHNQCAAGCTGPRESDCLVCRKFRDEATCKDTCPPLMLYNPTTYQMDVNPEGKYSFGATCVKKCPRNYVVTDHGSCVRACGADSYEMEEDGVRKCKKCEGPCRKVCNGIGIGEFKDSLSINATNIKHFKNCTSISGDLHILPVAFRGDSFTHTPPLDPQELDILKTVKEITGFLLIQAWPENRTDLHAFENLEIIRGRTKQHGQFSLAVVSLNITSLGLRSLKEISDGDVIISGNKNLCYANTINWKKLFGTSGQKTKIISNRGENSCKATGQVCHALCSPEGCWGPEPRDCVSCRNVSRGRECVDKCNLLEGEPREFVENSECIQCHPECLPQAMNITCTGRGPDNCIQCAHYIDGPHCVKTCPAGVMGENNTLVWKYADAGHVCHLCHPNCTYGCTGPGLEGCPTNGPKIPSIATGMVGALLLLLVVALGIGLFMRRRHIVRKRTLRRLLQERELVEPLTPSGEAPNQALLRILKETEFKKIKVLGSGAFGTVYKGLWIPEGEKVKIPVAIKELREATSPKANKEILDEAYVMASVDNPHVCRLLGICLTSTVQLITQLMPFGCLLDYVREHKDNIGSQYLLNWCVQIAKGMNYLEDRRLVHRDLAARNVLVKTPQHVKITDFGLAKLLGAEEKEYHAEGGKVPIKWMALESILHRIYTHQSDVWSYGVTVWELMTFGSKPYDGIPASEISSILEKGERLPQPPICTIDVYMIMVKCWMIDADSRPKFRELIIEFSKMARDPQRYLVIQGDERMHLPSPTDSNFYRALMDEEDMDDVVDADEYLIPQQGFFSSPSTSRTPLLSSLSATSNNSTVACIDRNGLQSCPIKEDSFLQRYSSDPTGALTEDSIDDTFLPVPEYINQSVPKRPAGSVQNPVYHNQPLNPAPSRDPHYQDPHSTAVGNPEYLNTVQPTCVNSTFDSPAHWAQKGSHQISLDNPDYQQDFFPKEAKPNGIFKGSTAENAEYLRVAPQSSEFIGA
Sequence of Bone morphogenetic protein receptor type-1A (Homo sapiens) (P36894 whole entry): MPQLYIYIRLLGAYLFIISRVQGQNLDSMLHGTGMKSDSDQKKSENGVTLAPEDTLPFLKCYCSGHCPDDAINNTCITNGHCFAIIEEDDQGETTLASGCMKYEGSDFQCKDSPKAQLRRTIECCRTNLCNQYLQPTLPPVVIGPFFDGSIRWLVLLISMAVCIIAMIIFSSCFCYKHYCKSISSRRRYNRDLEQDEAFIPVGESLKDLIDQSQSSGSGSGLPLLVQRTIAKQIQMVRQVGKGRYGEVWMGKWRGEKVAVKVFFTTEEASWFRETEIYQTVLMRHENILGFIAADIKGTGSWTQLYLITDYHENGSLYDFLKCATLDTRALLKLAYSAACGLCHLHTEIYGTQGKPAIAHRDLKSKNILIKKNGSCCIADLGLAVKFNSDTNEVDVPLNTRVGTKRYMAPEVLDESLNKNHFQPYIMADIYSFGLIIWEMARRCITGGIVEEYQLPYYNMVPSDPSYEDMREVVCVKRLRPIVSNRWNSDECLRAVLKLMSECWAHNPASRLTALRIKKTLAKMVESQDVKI

C[C@@H]1CN(c2cc(-c3n[nH]c4ccc(OC5(C)CC5)cc34)ncn2)C[C@H](C)O1 [MLi-2]
inactive: [1] 11% | [2] -2.71% | [3] 0.759% | [4] -0.77% | [5] -7.77% | Bos taurus 16% | [6] -1.63% | [7] 16.3% | [8] 80.1% | [9] 0.395% | [10] -4.32% | [11] 21.1% | [12] -2% | [13] -1.14% | Rattus norvegicus 0% | [14] 42.4% | [15] 21% | [16] 8% | [17] 10%
